Measurements as given in patent publication US20120328549A1, “OIL COMPOSITIONS” (ANTERIOS, INC., priority 2011, published 2012).

Tested on: Axillary Sweating
Assay: Clinical study of axillary sweating by gravimetric sweat measurement, double-blind versus placebo (water)
Assay type: in vivo, human
Excerpt: The purpose of the study was to determine if Labrafac® Lipophile WL 1349 is biologically active in reducing sweating. […] Some subjects received treatment with the potentially biologically active substance and some subjects received treatment with a placebo, i.e. water. Neither the subject nor the investigator knew which treatment the subject was receiving.
Two weeks after a single treatment, subjects were re-assessed by gravimetric sweat measurement to determine the degree of sweat reduction. A comparison of post-treatment sweat production between the treatment groups was made to determine the degree of sweat reduction by the potentially biologically active substance.
• able to understand and give written informed consent • ages 18-70 years of age • diagnosis of moderate to severe primary axillary hyperhidrosis • Hyperhidrosis Disease Severity Scale score of >3 (the HDSS scale is described below) • >50 mg of sweat production/axilla in 5 minutes as measured gravimetrically • willingness to use only over-the-counter deodorants during the course of the study • willingness to shave underarms prior to each study visit • female subjects must have a negative urine pregnancy test and be non-lactating at the initial (“Baseline”) study site visit • patients should be in good general health as determined by the investigator and free of any disease that may interfere with study evaluations
The sweat production of the subject is measured gravimetrically by the following procedure: • The subject was placed in a room with relatively constant temperature and humidity for at least 30 min. • The subject was placed in a semi-reclining position with the axilla fully exposed and the arm resting comfortably above the head. • The subject's axilla was dried gently with a cotton gauze pad. • The investigator used a forceps to place one filter paper (90 mm diameter) on a balance sensitive to 0.1 mg and recorded its weight. • The investigator used a forceps to place the measured filter paper on the axilla, covered it with plastic and taped the edges of the bag against the subject's skin with hypoallergenic tape to form a seal around the plastic bag. • After 5 minutes, the investigator gently removed the tape and plastic from the subject's axilla and then, using forceps, immediately placed the filter paper onto the scale to record its weight. The scale was then dried and zero balanced. • This measurement was then repeated as described above with the other axilla.
If the subject was eligible for treatment on this basis, the subject was then treated. For treatment, one of the study preparations (0.3 mL/axilla) was applied topically with a gloved finger by the investigator to the subject's skin of the axilla. The preparation was administered in small increments to avoid run-off. The liquid was rubbed-in until vanished. […]
The subject was scheduled for a follow-up office visit two weeks after the treatment. At the follow-up office visit, the subject was questioned as to their compliance with the instructions regarding which medications not to use between treatment and the two week follow-up office visit. […] If the subject was compliant, the subject was re-assessed using the gravimetric sweat measurement procedure.
The study was conducted at multiple study sites and conducted in compliance with Good Clinical Practice standards. […] Two weeks after the treatment, each subject was re-assessed by gravimetric sweat measurement. […]

## CCCCCCCCCCCCCC(=O)OC(C)C [Isopropyl Myristate]
1.89 mg per axilla topical, based on share of subjects with at least 30% reduction
  greater effectiveness in reducing sweat production than subjects treated with placebo: 191%
1.89 mg per axilla topical, two weeks after treatment
  conclusion on activity in reducing sweat production: biologically active in reducing sweat production
1.89 mg per axilla topical, two weeks after treatment, control group 29%
  percent of subjects with at least a 30% reduction in sweat production compared to Baseline: 55%
1.89 mg per axilla topical, two weeks after treatment, versus placebo (53 mg reduction)
  greater reduction in sweat production than the subjects in the control group: 195%
Subjects with primary axillary hyperhidrosis, single topical treatment, 1.89 mg per axilla, two weeks after treatment, 5 minute collection
  reduction in sweat production (average) as measured by gravimetric sweat measurement: 103 mg
